Consider four molecules from US9095136B2, “2-IODO imidazole-derivatives” (BAYER INTELLECTUAL PROPERTY GMBH, priority 2011, dated 2015).

“And” between values parts separate entries of the source, which are not always exact repeats. Identical values can stand only once. Marks after values point to notes of the source that are not given here.

For series [1], the system named is Uromyces appendiculatus. As to the kind of experiment: Example W: preventative in vivo test with Uromyces appendiculatus (bean rust). Particulars: 500 ppm, evaluation 10 days after inoculation. On the procedure:
The active compounds tested are prepared by homogenization in a mixture of acetone/Tween/DMSO and then diluted with water to the desired active compound concentration. Bean plants (cultivar “Saxa”), sown in a 50/50 peat/pozzolana soil substrate and cultivated at 24° C., are treated at the 2-leaf stage (height 9 cm) by spraying with the active compound, prepared as above. As a control, plants are treated with the mixture of acetone/Tween/DMSO/water without the active compound. After 24 hours, the plants are inoculated by spraying the leaves with an aqueous suspension of Uromyces appendiculatus spores.

Series [2] deals with Septoria tritici. As to the kind of experiment: Example U: preventative in vivo test with Septoria tritici (leaf blotch disease on wheat). Particulars: 500 ppm, evaluation 21 to 28 days after inoculation. The procedure:
The active compounds tested are prepared by homogenization in a mixture of acetone/Tween/DMSO and then diluted with water to the desired active compound concentration. Wheat plants (cultivar “Scipion”), sown in a 50/50 peat/pozzolana soil substrate and cultivated at 22° C. (12 h)/20° C. (12 h), are treated at the 1-leaf stage (height 10 cm) by spraying with the active compound, prepared as above. As a control, plants are treated with the mixture of acetone/Tween/DMSO/water without the active compound. After 24 hours, the plants are inoculated by spraying the leaves with an aqueous suspension of cryogenically preserved Septoria tritici spores.

A short description of series [3]: log P by HPLC on reversed-phase columns (EEC directive 79/831 Annex V.A8). Format: physicochemical. The procedure: The log P values were measured according to EEC directive 79/831 Annex V.A8 by HPLC (High Performance Liquid Chromatography) on reversed-phase columns, using the methods below: […] Calibration was carried out using unbranched alkan-2-ones (having from 3 to 16 carbon atoms) with known log P values (the log P values were determined by the retention times using linear interpolation between two successive alkanones). The lambda maX values were determined in the maxima of the chromatographic signals using the UV spectra from 200 nm to 400 nm.

Series [4] relates to Botrytis cinerea. As to the kind of experiment: Example P: preventative in vivo test with Botrytis cinerea (grey mould). The following applies: cucumber, 500 ppm, evaluation 4-5 days after inoculation. The procedure:
The active compounds tested are prepared by homogenization in a mixture of acetone/Tween/DMSO and then diluted with water to the desired active compound concentration. Cucumber plants (cultivar “Vert petit de Paris”), sown in a 50/50 peat/pozzolana soil substrate and cultivated at 24° C., are treated at the Z11 cotyledon stage by spraying with the active compound, prepared as above. As a control, plants are treated with the mixture of acetone/Tween/DMSO/water without the active compound. After 24 hours, the plants are inoculated by spraying the cotyledons with an aqueous suspension of cryogenically preserved Botrytis cinerea spores.

Series [5] deals with Sphaerotheca fuliginea. As to the kind of experiment: Example V: preventative in vivo test with Sphaerotheca fuliginea (powdery mildew on cucumber). The following applies: 500 ppm, evaluation 12 days after inoculation. The procedure:
The active compounds tested are prepared by homogenization in a mixture of acetone/Tween/DMSO and then diluted with water to the desired active compound concentration. Cucumber plants (cultivar “Vert petit de Paris”), sown in a 50/50 peat/pozzolana soil substrate and cultivated at 24° C., are treated at the Z11 cotyledon stage by spraying with the active compound, prepared as above. As a control, plants are treated with the mixture of acetone/Tween/DMSO/water without the active compound. After 24 hours, the plants are inoculated by spraying the leaves with an aqueous suspension of Sphaerotheca fuliginea spores. The inoculated cucumber plants are incubated at about 20° C./25° C. and a relative atmospheric humidity of 60/70%.

The test system of series [6] is Puccinia recondita. Kind of series: Example T: preventative in vivo test with Puccinia recondita (brown rust on wheat). Particulars: 500 ppm, evaluation 10 days after inoculation. On the procedure: The active compounds tested are prepared by homogenization in a mixture of acetone/Tween/DMSO and then diluted with water to the desired active compound concentration. Wheat plants (cultivar “Scipion”), sown in a 50/50 peat/pozzolana soil substrate and cultivated at 22° C. (12 h)/20° C. (12 h), are treated at the 1-leaf stage (height 10 cm) by spraying with the active compound, prepared as above. As a control, plants are treated with the mixture of acetone/Tween/DMSO/water without the active compound. After 24 hours, the plants are inoculated by spraying the leaves with an aqueous suspension of Puccinia recondita spores.

Series [7] deals with Pyrenophora teres. Kind of series: Example K: Pyrenophora teres test (barley)/protective. Format: in vivo. Particulars: protective, 500 ppm, evaluation 8 days after inoculation. On the procedure: Solvent: 49 parts by weight of N,N-dimethylacetamide Emulsifier: 1 part by weight of alkylaryl polyglycol ether To produce a suitable preparation of active compound, 1 part by weight of active compound is mixed with the stated amounts of solvent and emulsifier, and the concentrate is diluted with water to the desired concentration. To test for protective activity, young plants are sprayed with the preparation of active compound at the stated application rate. After the spray coating has dried on, the plants are sprayed with a spore suspension of Pyrenophora teres.

In series [8] the test system is Uromyces appendiculatus. As to the kind of experiment: Example E: Uromyces test (bean)/protective. The format is in vivo. The following applies: protective, 10 ppm, evaluation 10 days after inoculation. On the procedure: (§1) Solvents: 24.5 parts by weight of acetone • 24.5 parts by weight of dimethylacetamide Emulsifier: 1 part by weight of alkylaryl polyglycol ether To produce a suitable preparation of active compound, 1 part by weight of active compound is mixed with the stated amounts of solvent and emulsifier, and the concentrate is diluted with water to the desired concentration. To test for protective activity, young plants are sprayed with the preparation of active compound at the stated application rate. […] The plants are then placed in a greenhouse at about 21° C. and a relative atmospheric humidity of about 90%.

Series [9] relates to Pyricularia oryzae. The format is in vivo. Particulars: rice, protective, 500 ppm, evaluation 7 days after inoculation.
The test system of series [10] is Fusarium graminearum. The format is in vivo. Particulars: barley (heading), protective, 500 ppm, evaluation 5 days after inoculation.
Series [11] concerns Sphaerotheca fuliginea. Kind of series: Example B: Sphaerotheca test (cucumber)/protective. Format: in vivo. The following applies: protective, 500 ppm, evaluation 7 days after inoculation. The procedure: Solvent: 49 parts by weight of N,N-dimethylformamide Emulsifier: 1 part by weight of alkylaryl polyglycol ether To produce a suitable preparation of active compound, 1 part by weight of active compound is mixed with the stated amounts of solvent and emulsifier, and the concentrate is diluted with water to the desired concentration. To test for protective activity, young cucumber plants are sprayed with the preparation of active compound at the stated application rate. 1 day after the treatment, the plants are inoculated with a spore suspension of Sphaerotheca fuliginea. The plants are then placed in a greenhouse at 70% relative air humidity and a temperature of 23° C.

The test system of series [12] is Fusarium nivale (var. majus). As to the kind of experiment: Example M: Fusarium nivale (var. majus) test (wheat)/protective. The format is in vivo. The following applies: protective, 500 ppm, evaluation 5 days after inoculation. On the procedure:
Solvent: 49 parts by weight of N,N-dimethylacetamide Emulsifier: 1 part by weight of alkylaryl polyglycol ether To produce a suitable preparation of active compound, 1 part by weight of active compound is mixed with the stated amounts of solvent and emulsifier, and the concentrate is diluted with water to the desired concentration. To test for protective activity, young plants are sprayed with the preparation of active compound at the stated application rate. After the spray coating has dried on, the plants are sprayed with a spore suspension of Fusarium nivale (var. majus).

Series [13] deals with Puccinia triticina. As to the kind of experiment: Example L: Puccinia triticina test (wheat)/protective. Particulars: protective, 500 ppm, evaluation 8 days after inoculation. Format: in vivo. The procedure:
Solvent: 49 parts by weight of N,N-dimethylacetamide Emulsifier: 1 part by weight of alkylaryl polyglycol ether To produce a suitable preparation of active compound, 1 part by weight of active compound is mixed with the stated amounts of solvent and emulsifier, and the concentrate is diluted with water to the desired concentration. To test for protective activity, young plants are sprayed with the preparation of active compound at the stated application rate. After the spray coating has dried on, the plants are sprayed with spores with a spore suspension of Puccinia triticina.

In series [14] the test system is Leptosphaeria nodorum. As to the kind of experiment: Example H: Leptosphaeria nodorum test (wheat)/protective. Format: in vivo. Particulars: protective, 500 ppm, evaluation 8 days after inoculation. On the procedure: Solvent: 49 parts by weight of N,N-dimethylacetamide Emulsifier: 1 part by weight of alkylaryl polyglycol ether To produce a suitable preparation of active compound, 1 part by weight of active compound is mixed with the stated amounts of solvent and emulsifier, and the concentrate is diluted with water to the desired concentration. To test for protective activity, young plants are sprayed with the preparation of active compound at the stated application rate. After the spray coating has dried on, the plants are sprayed with a spore suspension of Leptosphaeria nodorum.

The subject of series [15] is Blumeria graminis f.sp. hordei. Kind of series: Example G: Blumeria graminis test (barley)/protective. The format is in vivo. Particulars: protective, 500 ppm, evaluation 7 days after inoculation. On the procedure:
Solvent: 49 parts by weight of N,N-dimethylacetamide Emulsifier: 1 part by weight of alkylaryl polyglycol ether To produce a suitable preparation of active compound, 1 part by weight of active compound is mixed with the stated amounts of solvent and emulsifier, and the concentrate is diluted with water to the desired concentration. To test for protective activity, young plants are sprayed with the preparation of active compound at the stated application rate. After the spray coating has dried on, the plants are dusted with spores of Blumeria graminis f.sp. hordei.

Series [16] deals with Alternaria solani. As to the kind of experiment: Example A: Alternaria test (tomato)/protective. The following applies: protective, 500 ppm, evaluation 7 days after inoculation. Format: in vivo. On the procedure: Solvent: 49 parts by weight of N,N-dimethylformamide Emulsifier: 1 part by weight of alkylaryl polyglycol ether To produce a suitable preparation of active compound, 1 part by weight of active compound is mixed with the stated amounts of solvent and emulsifier, and the concentrate is diluted with water to the desired concentration. […] The plants then remain at 96% rel. atmospheric humidity and a temperature of 20° C.

Series [17] concerns Septoria tritici. Kind of series: Example I: Septoria tritici test (wheat)/protective. Format: in vivo. Particulars: protective, 500 ppm, evaluation 21 days after inoculation. The procedure:
Solvent: 49 parts by weight of N,N-dimethylacetamide Emulsifier: 1 part by weight of alkylaryl polyglycol ether To produce a suitable preparation of active compound, 1 part by weight of active compound is mixed with the stated amounts of solvent and emulsifier, and the concentrate is diluted with water to the desired concentration. To test for protective activity, young plants are sprayed with the preparation of active compound at the stated application rate. After the spray coating has dried on, the plants are sprayed with a spore suspension of Septoria tritici.

For series [18], the system named is Alternaria brassicae. As to the kind of experiment: Example O: preventative in vivo test with Alternaria brassicae (leaf spot on radish). The following applies: 500 ppm, evaluation 5 days after inoculation. On the procedure:
The active compounds tested are prepared by homogenization in a mixture of acetone/Tween/DMSO and then diluted with water to the desired active compound concentration. Radish plants (cultivar “Pernod Clair”), sown in a 50/50 peat/pozzolana soil substrate and cultivated at 17° C., are treated at the 2-leaf stage by spraying with the active compound, prepared as above. As a control, plants are treated with the mixture of acetone/Tween/DMSO/water without the active compound. After 24 hours, the plants are inoculated by spraying the leaves with an aqueous suspension of Alternaria brassicae spores.

Series [19] deals with Venturia inaequalis. As to the kind of experiment: Example D: Venturia test (apple)/protective. The format is in vivo. Particulars: protective, 100 ppm, evaluation 10 days after inoculation. The procedure: as §1, with “Solvent:” for “Solvents:”
Series [20] relates to Phakopsora pachyrhizi. As to the kind of experiment: Example F: Phakopsora test (soya beans)/protective. Format: in vivo. The following applies: protective, 100 ppm, evaluation 7 days after inoculation. On the procedure:
Solvents: 24.5 parts by weight of acetone • 24.5 parts by weight of dimethylacetamide Emulsifier: 1 part by weight of alkylaryl polyglycol ether To produce a suitable preparation of active compound, 1 part by weight of active compound is mixed with the stated amounts of solvent and emulsifier, and the concentrate is diluted with water to the desired concentration. To test for protective activity, young plants are sprayed with the preparation of active compound at the stated application rate.

As for `Fc1cc(Cl)ccc1C1(Cn2ccnc2I)OC1c1ccccc1Cl` (centres unmarked) [Example 11], the Efficacy % in series [1] was found to be 97%; in [2], 100%; in series [4] it was 92%; in series [5], 100%; in [6] it was 93%. The logP (as a rule, the decadic logarithm of the partition coefficient of the neutral form, usually between octanol and water) in series [3] (pH 2.7) was 3.7^[a].
On to `OC(Cc1ccccc1F)(Cn1ccnc1I)C1(Cl)CC1` (centres unmarked) [Example 2], for which the Eff. % in series [7] was 100%; in series [8], 91% and 100%; in series [9] it was 80%; in series [10], 92% and 100%; in [11] it was 92%; in series [12], 100%. In addition, the Eff. % in series [13] amounted to 100%; in [14], 93%; in [15], 100%; in [16] it was 95%; in series [17], 86%. The log partition coefficient (logP) in series [3] (pH 2.7) was 2.05; in [3] (pH 7.8), 3.02.
With `Fc1ccc(C2(Cn3ccnc3I)OC2c2ccccc2Cl)cc1` (mixture of isomers) [Example 6], the Efficacy % in [18] is 75%.
As for `Fc1ccc([C@]2(Cn3ccnc3I)O[C@H]2c2ccccc2Cl)c(F)c1` (relative stereo) [Example 14, rel-1-{[(2R,3S)-3-(2-chlorophenyl)-2-(2,4-difluorophenyl)oxiran-2-yl]methyl}-2-iodo-1H-imidazole], the Efficacy % is 100% in [1]; 100% in series [2]; 97% in [4]; 100% in series [5]; 93% in [6]. The Eff. % is recorded as 100% in [13]; 90% in series [15]; 100% in [19]; 100% in series [20]; 100% in [17]. For the same molecule, the chromatographic logP (usually lipophilicity estimated from chromatographic retention) in series [3] (pH 2.7, log P(HCOOH)) is 3.23; in series [3] (pH 2.7, logP), 3.23.
